Measurements: ChEMBL document CHEMBL5375988, “AcGlcAs: A Novel P53-Targeting Arsenical with Potent Cellular Uptake and Cancer Cell Selectivity” (J Med Chem, 2023)
Active and inactive are the calls of the source. The calls are words filed in the database; no cut-off is given here.

Legend:
U-937 [1] = experiment: Upregulation of MDM2 mRNA expression in human U-937 cells overexpressing p53-V272M mutant pretreated for 1 hr followed by culturing in fresh medium for 4 hrs by RT-qPCR analysis; assay type: functional, cell-based
[2] = Chemical stability of compound in PBS at 10 uM incubated for 1 hr by LC-MS analysis; assay type: physicochemical; settings: buffer
NB-4 [3] = experiment: Induction of apoptosis in human NB4 cells assessed as early apoptotic cells at 9 uM preincubated for 1 hrs followed by replacement with fresh culture medium and measured after 24 hrs by Annexin V-FITC/7AAD staining based flow cytometry assay (reference value: 2.15%); assay type: functional
U-937 [4] = experiment: Upregulation of MDM2 protein expression in human U-937 cells overexpressing p53-V272M mutant at 0.1 to 0.5 uM pretreated for 1 hr followed by culturing in fresh medium for 16 hrs by Western blot analysis; assay type: functional, cell-based; settings: dose 0.1-0.5 µM
U-937 [5] = experiment: Induction of cell cycle arrest in human U-937 cells overexpressing p53-V272M mutant assessed as upregulation of GADD45A gene expression by RT-qPCR analysis; assay type: functional, cell-based
NB-4 [6] = experiment: Inhibition of colony formation in human NB4 cells at 1 to 9 uM pretreated for 1 hr followed by washout and cultured in soft agar containing fresh medium for 18 days by crystal violet staining based assay; assay type: functional, cell-based; settings: dose 1-9 µM
[7] = Drug uptake in human HepG2 cells assessed as fold increase in arsenic accumulation at 10 uM incubated for 10 mins by ICP-MS analysis; assay type: ADME, cell-based; settings: hepg2, 10 min
[8] = target: T1, PML-RARalpha (Homo sapiens) (UniProt P10276+P29590); experiment: Induction of PML/RARalpha degradation in human NB4 cells assessed as residual protein level at 1 uM incubated for 1 hrs followed by replacement with fresh culture medium and measured after 16 hrs by Western blot analysis (reference value: 1); assay type: cell-based
[9] = Drug uptake in human MDA-MB-231 cells at 10 uM measured after 10 mins by ICP-MS analysis; assay type: ADME, cell-based; settings: mda-mb-231, 10 min
NB-4 [10] = experiment: Induction of apoptosis in human NB4 cells assessed as early apoptotic cells at 3 uM preincubated for 1 hrs followed by replacement with fresh culture medium and measured after 24 hrs by Annexin V-FITC/7AAD staining based flow cytometry assay (reference value: 2.15%); assay type: functional
[11] = Drug uptake in human U-937 cells assessed as fold increase in arsenic accumulation at 10 uM incubated for 10 mins by ICP-MS analysis; assay type: ADME, cell-based; settings: u-937, 10 min
[12] = target: T1, PML-RARalpha (Homo sapiens); experiment: Induction of PML/RARalpha degradation in HEK293T cells at 3 uM incubated for 1 hrs followed by replacement with fresh culture medium and measured after 16 hrs by immunofluorescence analysis; assay type: cell-based
U-937 [13] = experiment: Induction of intrinsic apoptosis in human U-937 cells overexpressing p53-V272M mutant assessed as upregulation of PUMA gene expression by RT-qPCR analysis; assay type: functional, cell-based
U-937 [14] = experiment: Antitumor activity against human U-937 cells harboring p53 V272M mutant xenografted in M-NSG mouse assessed as median survival at 25 mg/kg, ip administered daily for 11 days (reference value: 11 day); assay type: functional
NB-4 [15] = experiment: Induction of apoptosis in human NB4 cells assessed as necrotic cells at 9 uM preincubated for 1 hrs followed by replacement with fresh culture medium and measured after 24 hrs by Annexin V-FITC/7AAD staining based flow cytometry assay (reference value: 0.16%); assay type: functional
U-937 [16] = experiment: Inhibition of colony formation in human U-937 cells harboring p53-V272M mutant at 0.5 to 8 uM pretreated for 1 hr followed by culturing in fresh medium and measured on day 14 by crystal violet staining based assay; assay type: functional, cell-based; settings: dose 0.5-8 µM
NB-4 [17] = experiment: Induction of apoptosis in human NB4 cells assessed as late apoptotic cells at 9 uM preincubated for 1 hrs followed by replacement with fresh culture medium and measured after 24 hrs by Annexin V-FITC/7AAD staining based flow cytometry assay (reference value: 3.71%); assay type: functional
NB-4 [18] = experiment: Induction of apoptosis in human NB4 cells assessed as late apoptotic cells at 27 uM preincubated for 1 hrs followed by replacement with fresh culture medium and measured after 24 hrs by Annexin V-FITC/7AAD staining based flow cytometry assay (reference value: 3.71%); assay type: functional
U-937 [19] = experiment: Upregulation of p21 protein expression in human U-937 cells overexpressing p53-V272M mutant at 0.1 to 0.5 uM pretreated for 1 hr followed by culturing in fresh medium for 16 hrs by Western blot analysis; assay type: functional, cell-based; settings: dose 0.1-0.5 µM
U-937 [20] = experiment: Antitumor activity against human U-937 cells harboring p53-V272M mutant xenografted in NSG mouse assessed as delay in tumor progression at 10 mg/kg, iv administered for 9 days by bioluminescence imaging based luciferase analysis; assay type: functional, organism-based; settings: time 9.0 day
[21] = Clearance in mouse assessed as hepatic blood flow; assay type: ADME, tissue-based
U-937 [22] = experiment: Antitumor activity against GFP-tagged human U-937 cells harboring p53 V272M mutant xenografted in M-NSG mouse assessed as delay in spleen swelling at 25 mg/kg, ip administered for 9 days starting from 7 days post inoculation and measured on day 9 by FACS analysis; assay type: functional, organism-based; settings: time 9.0 day
[23] = target: T1, PML-RARalpha (Homo sapiens); experiment: Induction of PML/RARalpha degradation in human NB4 cells assessed as appearance of large PML speckles characteristic of normal nuclear bodies at 3 uM incubated for 1 hrs followed by replacement with fresh culture medium and measured after 0.5 to 24 hrs by immunofluorescence analysis; assay type: cell-based
NCI-H1299 [24] = experiment: Upregulation of MDM2 mRNA expression in human NCI-H1299 cells overexpressing p53-V272M mutant at 2 uM pretreated for 1 hr followed by culturing in fresh medium for 8 hrs by RT-qPCR analysis; assay type: functional, cell-based
NCI-H1299 [25] = experiment: Upregulation of CDKN1A mRNA expression in human NCI-H1299 cells overexpressing p53-V272M mutant at 2 uM pretreated for 1 hr followed by culturing in fresh medium for 8 hrs by RT-qPCR analysis; assay type: functional, cell-based
[26] = Clearance in ICR mouse at 10 mg/kg, iv measured upto 24 hrs by ICP-MS analysis relative to hepatic blood flow; assay type: ADME, organism-based; settings: in vivo
U-937 [27] = experiment: Induction of cell cycle arrest in human U-937 cells overexpressing p53-V272M mutant assessed as upregulation of p21 encoding CDKN1A gene expression by RT-qPCR analysis; assay type: functional, cell-based
[28] = Drug accumulation in ICR mouse lungs at 10 mg/kg, iv measured upto 24 hrs by ICP-MS analysis; assay type: ADME, organism-based, Lung; settings: in vivo
NCI-H1299 [29] = experiment: Upregulation of MDM2 protein expression in human NCI-H1299 cells overexpressing p53-V272M mutant pretreated for 1 hr followed by culturing in fresh medium for 16 hrs by Western blot analysis; assay type: functional, cell-based
[30] = Drug uptake in human HepG2 cells assessed as arsenic localization in nucleus at 10 uM incubated for 1 hr by ICP-MS analysis; assay type: ADME, cell-based; settings: hepg2, 1 h
U-937 [31] = experiment: Cytotoxicity against p53 null human U-937 cells harboring p53 V272M mutant incubated for 48 hrs by CCK-8 assay; assay type: functional, cell-based; settings: U-937, 48 h
NB-4 [32] = experiment: Induction of apoptosis in human NB4 cells assessed as necrotic cells at 3 uM preincubated for 1 hrs followed by replacement with fresh culture medium and measured after 24 hrs by Annexin V-FITC/7AAD staining based flow cytometry assay (reference value: 0.16%); assay type: functional

T1 sequence (P10276 whole entry, looked up): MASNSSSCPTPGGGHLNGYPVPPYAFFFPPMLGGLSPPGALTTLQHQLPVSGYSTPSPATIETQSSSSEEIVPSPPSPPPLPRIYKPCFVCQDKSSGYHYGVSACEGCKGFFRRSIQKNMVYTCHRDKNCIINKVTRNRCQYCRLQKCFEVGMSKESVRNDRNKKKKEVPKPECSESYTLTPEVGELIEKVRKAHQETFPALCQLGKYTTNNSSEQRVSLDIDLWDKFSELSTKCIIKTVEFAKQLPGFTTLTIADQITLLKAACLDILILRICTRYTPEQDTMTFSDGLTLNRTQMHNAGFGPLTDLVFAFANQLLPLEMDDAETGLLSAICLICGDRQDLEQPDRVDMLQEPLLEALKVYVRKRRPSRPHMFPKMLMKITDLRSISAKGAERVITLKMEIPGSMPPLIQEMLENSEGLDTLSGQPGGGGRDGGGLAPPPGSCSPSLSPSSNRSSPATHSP
T1 sequence (P29590 whole entry, looked up): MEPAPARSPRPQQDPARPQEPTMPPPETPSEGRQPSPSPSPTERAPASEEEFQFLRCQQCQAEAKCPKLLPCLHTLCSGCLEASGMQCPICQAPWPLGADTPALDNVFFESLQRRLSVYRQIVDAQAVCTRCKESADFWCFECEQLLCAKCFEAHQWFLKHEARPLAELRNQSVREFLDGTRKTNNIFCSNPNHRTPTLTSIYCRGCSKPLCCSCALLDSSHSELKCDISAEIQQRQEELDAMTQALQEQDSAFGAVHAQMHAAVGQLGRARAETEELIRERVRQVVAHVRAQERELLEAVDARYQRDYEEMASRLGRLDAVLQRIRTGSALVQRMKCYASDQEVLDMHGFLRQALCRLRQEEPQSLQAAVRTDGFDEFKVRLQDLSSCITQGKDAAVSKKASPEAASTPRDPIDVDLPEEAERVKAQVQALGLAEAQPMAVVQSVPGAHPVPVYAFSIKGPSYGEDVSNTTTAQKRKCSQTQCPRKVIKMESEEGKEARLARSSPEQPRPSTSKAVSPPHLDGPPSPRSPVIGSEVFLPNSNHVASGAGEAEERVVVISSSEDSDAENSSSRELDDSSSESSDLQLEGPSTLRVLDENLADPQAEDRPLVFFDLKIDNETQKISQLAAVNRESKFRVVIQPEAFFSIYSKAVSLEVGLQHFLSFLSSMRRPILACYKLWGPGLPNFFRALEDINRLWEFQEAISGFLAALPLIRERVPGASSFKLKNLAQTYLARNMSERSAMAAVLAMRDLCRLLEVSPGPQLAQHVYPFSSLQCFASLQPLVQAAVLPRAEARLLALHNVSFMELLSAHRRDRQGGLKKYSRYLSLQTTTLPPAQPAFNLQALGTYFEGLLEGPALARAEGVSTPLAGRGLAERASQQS

CC(=O)OC[C@H]1O[C@@H](S[As]2SCCS2)[C@H](OC(C)=O)[C@@H](OC(C)=O)[C@@H]1OC(C)=O
Activity (U-937 [1]): Active | Stability [2]: Stable | Activity (NB-4 [3]): 7.43% | Activity (U-937 [4]): Active | Activity (U-937 [5]): Active | inhibition (NB-4 [6]): Active | fold change (FC) [7]: 19 | Activity [8]: 0.26 | Drug uptake [9]: Active | Activity (NB-4 [10]): 4.21% | fold change (FC) [11]: 19 | Activity [12]: Active | Activity (U-937 [13]): Active | MST (U-937 [14]): 18 days | Activity (NB-4 [15]): 0.26% | inhibition (U-937 [16]): Active | Activity (NB-4 [17]): 6.71% | Activity (NB-4 [18]): 29% | Activity (U-937 [19]): Active | Activity (U-937 [20]): Active | QH [21]: 90 mL/min/kg | Activity (U-937 [22]): Active | Activity [23]: Active | Activity (NCI-H1299 [24]): Active | Activity (NCI-H1299 [25]): Active | CLH [26]: 13.7% | Activity (U-937 [27]): Active | Drug uptake [28]: Active | Activity (NCI-H1299 [29]): Active | Drug uptake [30]: Active | IC50 (U-937 [31]): 0.23 µM | Activity (NB-4 [32]): 0.27%
